48 compounds from patent publication US9938262B2, “Benzamides” (Merck Patent GmbH, priority 2011, dated 2018) can be followed below.

The target of the first assay is T1, FSHR (Homo sapiens, UniProt P23945).
T1 construct: expressed in transfected cells; host or cells: CHO (Cho-FSHR-LUC-1-1-43)
T1 sequence (P23945 18-695): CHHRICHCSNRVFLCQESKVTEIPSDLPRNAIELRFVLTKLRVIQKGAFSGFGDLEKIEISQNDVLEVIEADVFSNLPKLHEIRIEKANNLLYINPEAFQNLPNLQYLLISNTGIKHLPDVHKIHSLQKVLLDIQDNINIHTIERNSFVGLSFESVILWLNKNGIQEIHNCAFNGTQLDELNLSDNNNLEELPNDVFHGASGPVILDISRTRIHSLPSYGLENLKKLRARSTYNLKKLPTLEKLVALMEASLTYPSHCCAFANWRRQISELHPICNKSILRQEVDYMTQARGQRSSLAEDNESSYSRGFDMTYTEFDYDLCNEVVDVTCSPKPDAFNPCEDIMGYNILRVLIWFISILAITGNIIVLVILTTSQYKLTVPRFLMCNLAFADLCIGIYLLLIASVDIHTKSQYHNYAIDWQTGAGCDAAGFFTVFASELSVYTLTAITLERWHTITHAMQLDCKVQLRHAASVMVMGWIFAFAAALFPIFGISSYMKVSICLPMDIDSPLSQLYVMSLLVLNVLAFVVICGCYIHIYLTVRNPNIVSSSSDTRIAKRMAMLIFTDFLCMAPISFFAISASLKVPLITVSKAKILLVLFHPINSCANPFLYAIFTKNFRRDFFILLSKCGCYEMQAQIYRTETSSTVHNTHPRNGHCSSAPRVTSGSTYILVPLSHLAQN
T1 sequence (P01215 25-116 partner): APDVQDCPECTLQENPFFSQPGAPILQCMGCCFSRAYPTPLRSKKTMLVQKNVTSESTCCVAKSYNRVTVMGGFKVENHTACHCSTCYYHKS
T1 sequence (P01225 19-129 partner): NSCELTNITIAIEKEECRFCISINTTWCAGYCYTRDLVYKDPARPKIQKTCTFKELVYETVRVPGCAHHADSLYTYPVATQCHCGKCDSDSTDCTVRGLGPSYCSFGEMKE
Put plainly: EC50 of cyclic AMP production in CHO FSHR cells + EC20 FSH (Assay A). Type of assay: cell-based. The following applies: 1 h; 5 μM; effect relative to maximum response of the FSH standard; Table 1. The protocol: Example 10: EC50 of Cyclic AMP Production in CHO FSHR Cells+EC20 FSH (Assay A)
2500 Cho-FSHR-LUC-1-1-43 cells were plated per well in 5 μl of phenol red free DMEM/F12+1% FBS. Cells were plated in 384 well, solid white low volume plates (Greiner 784075) by Multidrop. Cells were assayed by adding 100 μl of 2×EC20 FSH/IBMX in DMEM/F12+0.1% BSA) by Multidrop to 2 μl of test compound stamped in 384 well plates (compounds are diluted 1:50). The final FSH concentration was […], and the final IBMX concentration was 200 μM. The compound plate map was as follows: Column 1: 2 μl of DMSO; Column 2: 2 μl of DMSO; Columns 3-12 and 13-24: 2 μl of test compound, diluted 1:4 in 100% DMSO, or 2 μl of FSH, diluted 1:4 in DMEM/F12+0.1% BSA. The starting concentration for FSH was 50 nM (final concentration was 0.5 nM). […] 5 μl of compound+EC20 FSH mixture were transferred to cell plates (1:2 dilution into 5 μl of cell media) The plates were incubated at 37° C. for 1 h. 10 μl of mixed HTRF (CisBio #62AM4PEC) reagents were added per well and incubated at room temperature for 1 h. The plates were read on Envision using the cAMP HTRF—low volume 384 well protocol. The readout was the calculated fluorescence ratio (665 nm/620 nm). Values given in percent (%) indicate the percental effect (response) at a certain concentration of agonist relative to the maximum response of the FSH standard.
Turning to `Cc1ccccc1N1CCN(c2ccc(C(=O)N[C@@H]3CCCN(C(=O)OC(C)(C)C)C3)cc2NC(=O)c2ccco2)CC1` [Compound 21], the activation at 5 µM stood at 22%.

On to `Cc1ccccc1N1CCN(c2ccc(C(=O)NCCCn3ccc4ccccc43)cc2NC(=O)c2ccco2)CC1` [Compound 149], for which the activation at 5 µM turned out to be 24%. Regarding `Cc1ccccc1N1CCN(c2ccc(C(=O)NCCCN3CCCC3=O)cc2NC(=O)c2cccc3nccnc23)CC1` [Compound 115], the activation at 5 µM turned out to be 39%. As for `Cc1ccccc1N1CCN(c2ccc(C(=O)NCCCN3CCCC3=O)cc2NC(=O)c2cccc(C(F)(F)F)c2)CC1` [Compound 39], the activation at 5 µM was determined as 15%. In the case of `COc1ccccc1CNC(=O)c1ccc(N2CCN(c3ccccc3C)CC2)c(NC(=O)c2ccco2)c1` [Compound 124, Furan-2-carboxylic acid [5-(2-methoxy-benzylcarbamoyl)-2-(4-o-tolyl-piperazin-1-yl)-phenyl]-amide], the activation at 5 µM was determined as 82%. For `Cc1ccccc1N1CCN(c2ccc(C(=O)NCCCN3CCCC3=O)cc2NC(=O)c2ccc(-c3ccccc3)o2)CC1` [Compound 13], the activation at 5 µM turned out to be 14%.

Staying with this assay, now noted: 1 h; 5 μM; effect relative to maximum response of the FSH standard; Table 2.
Turning to `Cc1ccc(C(=O)Nc2cc(C(=O)NCCCN3CCOC3=O)ccc2N2CCN(c3nccn3C)CC2)o1` [Compound 514], the activation at 5 µM was found to be 48%.

Still in this assay, the particulars now being: CHO FSHR cells + EC20 FSH; Table 1; read-out: Assay A EC50 of cyclic AMP production.
One may read the EC50 as the concentration needed to bring the measured effect to its halfway point. Take `Cc1ccccc1N1CCN(c2ccc(C(=O)NCCCc3ccncc3)cc2NC(=O)c2ccco2)CC1` [Compound 153]: the EC50 was in the range of 100 to 1000 nM. `CC(=O)N1CCC(NC(=O)c2ccc(N3CCN(c4ccccc4C)CC3)c(NC(=O)c3ccco3)c2)CC1` [Compound 56, Furan-2-carboxylic acid [5-(1-acetyl-piperidin-4-ylcarbamoyl)-2-(4-o-tolyl-piperazin-1-yl)-phenyl]-amide]: the EC50 lay in the range of 1000 to 10000 nM. As for `Cc1ccccc1N1CCN(c2ccc(C(=O)NCCCN3CCCC3=O)cc2NC(=O)c2cccs2)CC1` [Compound 20], the EC50 lay within 100 to 1000 nM.

As for `COc1ccccc1N1CCN(c2ccc(C(=O)NCCCN3CCCC3=O)cc2NC(=O)c2ccc(C)o2)CC1` [Compound 173, 5-Methyl-furan-2-carboxylic acid {2-[4-(2-methoxy-phenyl)-piperazin-1-yl]-5-[3-(2-oxo-pyrrolidin-1-yl)-propylcarbamoyl]-phenyl}-amide], the EC50 lay in the range of 1000 to 10000 nM. In the case of `Cc1cccc(N2CCN(c3ccc(C(=O)NCCCN4CCCC4=O)cc3NC(=O)c3ccc(C)o3)CC2)c1` [Compound 243], the concentration for a half-maximal effect (EC50) lay within 1000 to 10000 nM.

`Cc1ccccc1N1CCN(c2ccc(C(=O)NCCCN3CCCC3=O)cc2NC(=O)c2ccoc2C)CC1` [Compound 68]: the concentration for a half-maximal effect (EC50) lay in the range of 1000 to 10000 nM. As for `Cc1ccccc1N1CCN(c2ccc(C(=O)NCC(=O)NC3CCCC3)cc2NC(=O)c2ccco2)CC1` [Compound 151], the EC50 was in the range of 100 to 1000 nM. Same read-out and setting: to `Cc1ccccc1N1CCN(c2ccc(C(=O)NCCCN)cc2NC(=O)c2ccco2)CC1` [Compound 192] belongs 100 to 1000 nM. The same measure, in the same setting: under `CCC(C)(C)C(=O)N(C)CCNC(=O)c1ccc(N2CCN(c3ccccc3C)CC2)c(NC(=O)c2ccco2)c1` [Compound 133, Furan-2-carboxylic acid [5-{2-[(2,2-dimethyl-butyryl)-methyl-amino]-ethylcarbamoyl}-2-(4-o-tolyl-piperazin-1-yl)-phenyl]-amide] stands 100 to 1000 nM; under `COc1ccc(CNC(=O)c2ccc(N3CCN(c4ccccc4C)CC3)c(NC(=O)c3ccc(C)o3)c2)cc1OC` [Compound 171, 5-Methyl-furan-2-carboxylic acid [5-(3,4-dimethoxy-benzylcarbamoyl)-2-(4-o-tolyl-piperazin-1-yl)-phenyl]-amide], 1000 to 10000 nM; under `Cc1ccccc1N1CCN(c2ccc(C(=O)NCCS(=O)(=O)N3CCCC3)cc2NC(=O)c2ccco2)CC1` [Compound 119], 100 to 1000 nM. `CCCc1cc(C(=O)Nc2cc(C(=O)NCCCN3CCCC3=O)ccc2N2CCN(c3ccccc3C)CC2)co1` [Compound 220]: the EC50 fell in the range of 1000 to 10000 nM.

Regarding `Cc1ccccc1N1CCN(c2ccc(C(=O)NCCC3C[C@H]4CC[C@@H]3C4)cc2NC(=O)c2ccco2)CC1` (stereo partly drawn) [Compound 157], the EC50 is 100 to 1000 nM.

For the compound `Cc1ccccc1N1CCN(c2ccc(C(=O)NCCCN3CCCC3=O)cc2NC(=O)c2csc(C(C)C)c2)CC1` [Compound 213], the concentration for a half-maximal effect (EC50) is above 10000 nM. Still for that read-out and setting: under `Cc1ccc(C(=O)Nc2cc(C(=O)NCCCN3CCCC3=O)ccc2N2CCN(c3ccccc3F)CC2)o1` [Compound 130, 5-Methyl-furan-2-carboxylic acid {2-[4-(2-fluoro-phenyl)-piperazin-1-yl]-5-[3-(2-oxo-pyrrolidin-1-yl)-propylcarbamoyl]-phenyl}-amide] stands 1000 to 10000 nM.

With `Cc1ccccc1N1CCN(c2ccc(C(=O)NCCCN3CCCC3=O)cc2NC(=O)c2ncccc2F)CC1` [Compound 160], the EC50 was 1000 to 10000 nM.

Still in this assay, the particulars now being: CHO FSHR cells + EC20 FSH; Table 2; read-out: Assay A EC50 of cyclic AMP production.
On to `Cc1ccccc1N1CCN(c2ccc(C(=O)N[C@H]3CCC[C@H](O)C3)cc2NC(=O)c2coc(C3CC3)n2)CC1` [Compound 576], for which the EC50 is below 100 nM.

As to `Cc1ccccc1N1CCN(c2ccc(C(=O)NCCCN3CCCC3=O)cc2NC(=O)c2coc(C3CC3)n2)CC1=O` [Compound 605], the EC50 was 1000 to 10000 nM. Same read-out and setting: to `Cc1ccccc1N1CCN(c2ccc(C(=O)NCCCN3CCC[C@@H]3C(N)=O)cc2NC(=O)c2ccco2)CC1` [Compound 608] belongs 100 to 1000 nM; to `Cc1ccccc1N1CCN(c2ccc(C(=O)NCCCc3cccnc3)cc2NC(=O)c2ccco2)CC1` [Compound 469], 100 to 1000 nM; to `CC(=O)N(C)CCCNC(=O)c1ccc(N2CCN(c3ccccc3C)CC2)c(NC(=O)c2coc(C3CC3)n2)c1` [Compound 360], below 100 nM. Regarding `Cc1ccccc1N1CCN(c2ccc(C(=O)NCCCN3C(=O)CCC3C)cc2NC(=O)c2coc(C3CC3)n2)CC1` (stereo not drawn) [Compound 330], the EC50 is 100 to 1000 nM.

Turning to `Cc1ccccc1N1CCN(c2ccc(C(=O)NCCCN3CCCC3=O)cc2NC(=O)c2ccc(C3CC3)o2)CC1` [Compound 449], the EC50 fell in the range of 100 to 1000 nM. Regarding `Cc1cccc(C(=O)NCCCNC(=O)c2ccc(N3CCN(c4ccccc4C)CC3)c(NC(=O)c3coc(C4CC4)n3)c2)n1` [Compound 443], the EC50 is 100 to 1000 nM. Take `O=C(NCCCN1CCCC1=O)c1ccc(N2CCN(c3ccccc3F)CC2)c(NC(=O)c2coc(C3CC3)n2)c1` [Compound 402]: the EC50 lay within 100 to 1000 nM. On to `Cc1noc(CCCNC(=O)c2ccc(N3CCN(c4ccccc4C)CC3)c(NC(=O)c3coc(C4CC4)n3)c2)n1` [Compound 438], for which the EC50 was 100 to 1000 nM. Same read-out and setting: under `Cc1ccccc1N1CCN(c2ccc(C(=O)N[C@@H]3CCC[C@@H](O)[C@H]3O)cc2NC(=O)c2coc(C3CC3)n2)CC1` [Compound 480] stands below 100 nM; under `Cc1ccccc1N1CCN(c2ccc(C(=O)NCCCN3CCC(O)C3)cc2NC(=O)c2coc(C3CC3)n2)CC1` (stereo not drawn) [Compound 461], 100 to 1000 nM. Turning to `Cc1ccccc1N1CCN(c2ccc(C(N)=O)cc2NC(=O)c2ccco2)CC1` [Compound 283], the EC50 was in the range of 1000 to 10000 nM.

For `Cc1ccccc1N1CCN(c2ccc(C(=O)NCCCN3CCCC3=O)cc2NC(=O)c2nc(C3CC3)cs2)CC1` [Compound 285], the EC50 is 100 to 1000 nM.

On to `Cc1ccccc1N1CCN(c2ccc(C(=O)NCCCN3CCCC3=O)cc2NC(=O)c2coc(C3CC3)n2)CC1` [Compound 436], for which the EC50 lay within 100 to 1000 nM. The same measure, in the same setting: to `Cc1cccnc1N1CCN(c2ccc(C(=O)NCCCN3CCCC3=O)cc2NC(=O)c2coc(C3CC3)n2)CC1` [Compound 439] belongs below 100 nM. On to `Cc1ccc(C(=O)Nc2cc(C(=O)NC[C@@H](O)c3ccccc3)ccc2N2CCN(c3ccccc3C)CC2)o1` [Compound 583], for which the concentration giving a half-maximal response (EC50) lay in the range of 1000 to 10000 nM. On the same count and under the same terms, under `Cc1ccccc1N1CCN(c2ccc(C(=O)NCCCNC(=O)NC(C)C)cc2NC(=O)c2coc(C3CC3)n2)CC1` [Compound 425] stands 100 to 1000 nM. Turning to `Cc1ccc(C(=O)Nc2cc(C(=O)NCCCN3CCCC3=O)ccc2N2CCN(c3ccncc3C)CC2)o1` [Compound 475], the EC50 was above 10000 nM.

For `Cc1ccccc1N1CCN(c2ccc(C(=O)N[C@H]3CCC[C@H](O)[C@@H]3O)cc2NC(=O)c2coc(C3CC3)n2)CC1` [Compound 578], the EC50 was below 100 nM. For `Cc1ccccc1N1CCN(c2ccc(C(=O)NCCCN)cc2NC(=O)c2coc(C3CC3)n2)CC1` [Compound 417], the EC50 fell in the range of 1000 to 10000 nM.

`Cc1ccccc1N1CCN(c2ccc(C(=O)NCC(=O)NC3CCCC3)cc2NC(=O)c2coc(C3CC3)n2)CC1` [Compound 294]: the EC50 was in the range of 1000 to 10000 nM. `Cc1ccccc1N1CCN(c2ccc(C(=O)NCCCN3CCC(F)(F)C3)cc2NC(=O)c2coc(C3CC3)n2)CC1` [Compound 362]: the EC50 lay in the range of 100 to 1000 nM. With `Cc1ccccc1N1CCN(c2ccc(C(=O)N3CC4(COC4)C3)cc2NC(=O)c2ccco2)CC1` [Compound 592], the EC50 fell in the range of 1000 to 10000 nM. As to `CCC(C)NC(=O)NCCCNC(=O)c1ccc(N2CCN(c3ccccc3C)CC2)c(NC(=O)c2ccco2)c1` (stereo not drawn) [Compound 511], the EC50 fell in the range of 100 to 1000 nM.
